Entries after “also recorded” stand apart in the source; their conditions may differ.
Legend:
chronic wounds = assay: Controlled open trial of lysine in chronic human wounds; type: in vivo
From the text: Chronic wounds of different anatomical locations as well as etiology were included in the controlled open trial of “lysine” for it's/their ability to induce angiogenesis and induction of the healthy granulation tissue formation in these chronic wounds. These included diabetic wounds and ulcers of various durations and severity, bed sores and pressure sores of various durations, infected wounds and cellulitic wounds of various origins, burns of different degrees and extents—both infected and otherwise, amputations, skingrafts, venous ulcers and even leprotic wounds and ulcers of long standing.
The wounds were debrided manually with gauge pieces soaked in normal saline to the point of bleeding of smaller vessels at the base of the wounds (wound-bed). Some of the chronic wounds were debrided surgically depending on the severity of the wound condition(s). Dressings were done with adequate amounts of the amino acid and/derivative(s) applied to the wound site(s) topically/locally. Wounds were closed with moistened gauge piece and adhesive tapes and the procedure repeated every 72-96 hrs. This approach constituted the experimental group subjects. In the control groups, conventional therapy were instituted both in terms of surgical/manual/enzymatic debridements as well as applying usual medications e.g. betadine, salutyl (a preparation which removes ischaemia by inducing angiogenesis in ischaemic wounds), trypsin, chymotrypsin, metronidazole preparations, silver sulfadiazine, regranex (a PDGF based healing agent containing “small” amount of the cationic amino acid lysine as “stabilizing agent”, along with quite a few other additives and ingredients), various surface antibiotics etc., depending on the clinical condition in question.
(§1) Tissue biopsies were taken from both groups—either animals or human beings—from appropriate wound site(s)/cardiac tissue (myocardium) at various time points post surgery/applications/dressings with the active ingredient(s), fixed at room temp. for 24 hrs. in formal saline (4% v/v). Tissue sections were stained with haematoxylin and eosin and observed under light microscope.

hybridoma cell mass = conditions: compared to other physico-chemical means (Datta, D et al. 1997); cited from earlier work
ischaemic myocardium = assay: Cardiac angiogenesis / coronary ischaemia model; type: in vivo, sheep
Method: For cardiac angiogenesis experiments, healthy immunized adult sheep, weighing 20-30 Kgs were selected. The selected animals underwent routine blood tests and echocardiography prior to surgery which acted as the base line data. Under general anaesthesia, 4 sheep were operated through a left thoracotomy. […] In one of the experimental animals, in addition to the intramuscular injection of lysine, about 10 ml of the saturated solution of lysine was injected at the root of the aorta through a pig-tail catheter passed retrogradely through the descending thoracic aorta. […] Post-operative echocardiogram were done in all the animals at 96 hrs post-surgery to assess the left ventricular wall motion. Two weeks post-surgery echocardiograms were done to assess left ventricular wall motion. The animals were sacrificed and autopsy of the hearts were done for examination of the degree of angiogenesis.
as §1, with “microscope. […]” for “microscope.”

acute surgical wounds = assay: Acute surgical wound model (full thickness skin incisions); type: in vivo, Rabbits
Method: Rabbits (about 1.5 Kg body wt.) from Haffkine Biopharmaceuticals, Mumbai, India were used for acute surgical wound model experimentations.
For acute surgical wound experiments, dorsal paravertebral skin was shaved in both the groups. Full thickness skin incisions (about 1 inch long) were made on either side of the vertebral column under local anaesthesia. In the experimental group, “lysine” in powder form(s) was instilled/spinkled/applied (about 10-15 mg) in each wound and the wounds were closed by single suture each to keep the edges apposed. No surface/systemic antibiotics were given to the animals dressed with “lysine”. Similar treatments were given to the control wounds except for omitting the “lysine” dressing altogether. Control wounds were protected with surface antibiotics ointment, applied at the time of each dressing. The wounds were covered with adhesive plasters in both the groups. Dressings were replaced every 48-72 hrs.
as §1
For examination of wound tissues under scanning electron microscope, skin tissues were taken (about 1.5 inch square) surgically under local anaesthesia in such a way that the original wound incision lied at the center of this piece of skin tissue, which was fixed in formal saline (4%) for 24 hrs at room temp. and pressure. Before mounting on to the observation stub with the help of a double faced adhesive tape, the wet tissues were dried adequately first with tissue papers and then at 37 degree Centrigrade incubator for about 2 hrs. Finally the dried tissues were cut with scissors in such a way that the cut line in each case was perpendicular to the original incision line. The finally prepared samples were gold coated in a hummer for around 4 minutes in vacuum and examined in a scanning electron microscope (Jeol).

protein synthesis = assay: 35S-Methionine incorporation in acute surgical wound tissue; type: in vivo; conditions: 72 hrs post surgery, topical, vs control wound, HCl
collagen synthesis = assay: 14C-Glycine incorporation in wound tissue; type: in vivo; conditions: experimental wound, 100% (w/w) topical, 0.25 to 100 mg/sq. in
From the text: As glycine is present at every third position in the primary sequence of Collagen, ^14C-Glycine incorporation in the wound tissue was supposed to give an idea of differential collagen synthesis in experimental and control wounds.

angiogenesis = assay: Oligo-lysine and d-lysine induced cell expansion and angiogenesis in-vivo; conditions: compared to l-lysine
adherent cellular growth = assay: Cellular expansion in culture (in-vitro); type: cell-based; conditions: compared to l-lysine; d-Lysine about 10 mcg/ml added load
From the text: Photo 12, cell culture photographs of d-Lysine (about 10 mcg/ml of added load, in addition to the usual load of I-Lysine, whatever was there in the media as the metabolic requirement) mediated cellular expansion in culture. […] In-situ controlled and physiological expansion of constituent cells in a wound bed, including the endothelial cells and their mediation of normal angiogenic process, mediate only by lysine/derivative(s), without addition/intervention of any other additive(s), whatsoever, is the essence of present invention.

In the case of `NCCCC[C@H](N)C(=O)O` [lysine, Lysine], the in-situ tissue repair (chronic wounds; all types of acute and chronic wounds of both animal and human origin) is reported as “excellent tissue regeneration in-situ”, the “granulation tissue / angiogenic response” value (chronic wounds; bed sore, about two weeks of topical application) is reported as “Extensive granulation tissue and profuse angiogenic response” and the “time to skin graft” value (chronic wounds; cellulitic wound following 3rd degree burn) is reported as “around two weeks”. For the same molecule, the “granulation/angiogenic tissue in wound bed” value (chronic wounds; cellulitic wound following 3rd degree burn, 11th day post initiation of therapy) was “extensive granulation/angiogenic tissue”, the granulation/angiogenesis (chronic wounds; cellulitic wound following 3rd degree burn, third day of topical therapy) was “reasonable granulation/angiogenesis” and the “blood cell intravasation in the wound area” value (chronic wounds; chronic diabetic ulcer, around 11th day post initiation of therapy) was “extensive blood cell intravasation”. For the same molecule, the “glandular structures (histopathology)” value (chronic wounds; chronic diabetic ulcer, topical) was “healthy glandular structures”, the “angiogenic response (histopathology)” value (chronic wounds; chronic human wounds, topical) was “profuse angiogenic response; also recorded: Extensive angiogenic response” and the “time to skin graft (clinical end point)” value (chronic wounds; chronic stump wound) was “around two weeks”. The granulation (chronic wounds; chronic stump wound, within two weeks of topical therapy) was “extensive granulation”, the “Keratinocyte layer thickening (histopathology)” value (chronic wounds; experimental wounds of human origin) was “very advanced degree of Keratinocyte layer thickening” and the “time to ready for skin graft” value (chronic wounds; infected third degree burn, post institution of therapy) was 13 days. For the same molecule, the “induction of granulation tissue/angiogenesis” value (chronic wounds; infected third degree burn, within around two weeks) was “remarkable induction of granulation tissue/angiogenesis”, the granulation/angiogenesis (chronic wounds; leprotic wound (about 3 yr old), topical) was “very good granulation/angiogenesi-s” and the reduction in size (chronic wounds; leprotic wound, about 12 weeks topical treatment) was “about 60%”. For the same molecule, the “time to initiation of repair-by-in-situ-regeneration” value (chronic wounds; topical and/or systemic therapy) was 72 to 96 h, the “time to first appearance of healthy granulation tissue” value (chronic wounds; wounds of different locations, origins and durations) was 72 to 96 h and the “expansion of biomass (cell population)” value (hybridoma cell mass) was “expand the biomass (cell population) at the least possible time”. The “echocardiography: movement of myocardium in ischaemic zones” value (ischaemic myocardium; 96 hrs post surgery) was “definite non-asynchronous movement of the myocardium”, the “hierarchical nature of the angiogenic response” value (ischaemic myocardium; 21 days post surgery) was “capillaries filled with blood cells” and the “angiogenic response in ischaemic cardiac muscle tissue” value (ischaemic myocardium; 21 days post surgery, vs control) was “extensive angiogenic response”. The “histopathology: angiogenic response” value (ischaemic myocardium; around two-weeks, vs control) was “advanced degree of matured angiogenic response”, the “granulation tissue (scanning electron microscopy)” value (acute surgical wounds; acute surgical incision dressed with topically applied lysine, 72 hrs post surgery) was “spongy granulation tissue” and the dividing cells in-vivo (acute surgical wounds; acute surgical incision model, systemic application) was “stratified layers of dividing cells”. For the same molecule, the “histopathology: cellular thickening from basal keratinocyte layer” value (acute surgical wounds; rabbit, experimental vs control wound) was “extensive cellular thickening from the basal keratinocyte layer” and the “granulation tissue (scanning electron microscopy)” value (acute surgical wounds; systemic lysine, i.p. injection, 5 ml, 5 mg/ml) was “spongy granulation tissue in the vicinity of the incision”.
For `Cl.NCCCC[C@H](N)C(=O)O` [L-lysine HCl], the 35S-Methionine incorporation (protein synthesis; listed as 100% (w/w) powder formulation) was “Significant difference”, the 35S-Methionine incorporation (protein synthesis; listed as amino acid) was “Significantly more” and the 14C-Glycine incorporation (collagen synthesis) was “Comparatively low incorporation”.
In the case of `NCCCC[C@@H](N)C(=O)O` [d-Lysine], the angiogenesis in-vivo (angiogenesis) is reported as “equally effective”, the “expansion of cells in-vivo” value (angiogenesis) is reported as “equally effective” and the “cellular expansion / growth in-vitro” value (adherent cellular growth) is reported as “equally effective”.

— patent US20080153910A1, “LYSINE IN THERAPEUTIC ANGIOGENESIS FOR CARDIAC AND CEREBRAL/NEURAL REPERFUSION” (priority 2001, published 2008)
